Tests used:
[1] = system: A549 human lung tumors; assay: Evaluation of ED50 (lung section and tumor regression studies); assay type: in vivo, nude mice; settings: Mus musculus, oral route
Experimental: ED50 values were evaluated based on the lung section and tumor regression studies.

[2] = target: hERG (Homo sapiens, UniProt Q12809); assay: hERG Ikr (tail) current, whole cell patch-clamp in CHO cells; settings: 10 μM
[3] = target: T1, MEK4 (Homo sapiens, UniProt P45985); assay: KinomeScan; assay type: binding; settings: read-out: % Ctrl @ 10000 nM
T1 construct: host or cells: E. coli host derived from the BL21 strain, infected with T7 phage
Experimental: (§1) Kinase assays: Assays were performed as described in Fabian et al. (2005) Nature Biotechnology, vol. 23, p. 329. Kinase-tagged T7 phage strains were grown in parallel in 24 or 96-well blocks in an E. coli host derived from the BL21 strain. E. coli were grown to log-phase and infected with T7 phage from a frozen stock (multiplicity of infection ˜0.1) and incubated with shaking at 32° C. until lysis (−90 minutes). The lysates were centrifuged and filtered to remove cell debris. […] The liganded beads were blocked with excess biotin and washed with blocking buffer (SeaBlock (Pierce), 1% BSA, 0.05% Tween 20, 1 mM DTT) to remove unbound ligand and to reduce non-specific phage binding.
(§2) Test compounds were prepared as 40× stocks in DMSO and diluted into the aqueous environment. 2.5% DMSO was added to control assays lacking a test compound. All reactions were performed in polystyrene 96-well plates that had been pretreated with blocking buffer in a final volume of 0.04 ml. […] The phage titer in the eluates was measured by quantitative PCR.

[4] = target: T2, PDPK1 (Homo sapiens, UniProt O15530); assay: KinomeScan; assay type: binding; settings: read-out: % Ctrl @ 10000 nM
T2 construct: host or cells: E. coli host derived from BL21, infected with T7 phage
Experimental: as §1, §2

[5] = target: T3, PRKD3 (Homo sapiens, UniProt O94806); assay: KinomeScan; assay type: binding; settings: read-out: % Ctrl @ 10000 nM
T3 construct: host or cells: T7 phage in E. coli host derived from BL21
Experimental: as §1, §2

[6] = target: T4, ACVR2A (Homo sapiens, UniProt P27037); assay: KinomeScan; assay type: binding; settings: read-out: % Ctrl @ 10000 nM
T4 construct: host or cells: E. coli (BL21-derived), T7 phage lysate
Experimental: as §1, §2

[7] = target: T5, PIK3CA (Homo sapiens, UniProt P42336); assay: KinomeScan; assay type: binding; settings: read-out: % Ctrl @ 10000 nM
T5 construct: host or cells: E. coli host derived from BL21, infected with T7 phage
Experimental: as §1, §2

[8] = target: T6, NEK1 (Homo sapiens, UniProt Q96PY6); assay: KinomeScan; assay type: binding; settings: read-out: % Ctrl @ 10000 nM
T6 construct: host or cells: T7 phage grown in E. coli host derived from BL21
Experimental: as §1, §2

[9] = target: T7, CDK8 (Homo sapiens, UniProt P49336); assay: KinomeScan; assay type: binding; settings: read-out: % Ctrl @ 10000 nM
T7 construct: host or cells: T7 phage in E. coli host derived from BL21
Experimental: as §1, §2

[10] = target: T8, CLK1 (Homo sapiens, UniProt P49759); assay: KinomeScan; assay type: binding; settings: read-out: % Ctrl @ 10000 nM
T8 construct: host or cells: T7 phage in E. coli host derived from BL21
Experimental: as §1, §2

[11] = target: T9, CAMKK1 (Homo sapiens, UniProt Q8N5S9); assay: KinomeScan; assay type: binding; settings: read-out: % Ctrl @ 10000 nM
T9 construct: host or cells: T7 phage in E. coli host derived from BL21
Experimental: as §1, §2

[12] = target: T10, STK35 (Homo sapiens, UniProt Q8TDR2); assay: KinomeScan; assay type: binding; settings: read-out: % Ctrl @ 10000 nM
T10 construct: host or cells: T7 phage grown in E. coli (BL21-derived)
Experimental: as §1, §2

[13] = target: T11, CSF1R (Homo sapiens, UniProt P07333); assay: KinomeScan; assay type: binding; settings: read-out: % Ctrl @ 10000 nM
T11 construct: host or cells: T7 phage in E. coli host derived from BL21
Experimental: as §1, §2

[14] = target: T12, FGFR3(G697C) (Homo sapiens, UniProt P22607, G697C); assay: KinomeScan; assay type: binding; settings: read-out: % Ctrl @ 10000 nM
T12 construct: host or cells: T7 phage in E. coli host derived from BL21
Experimental: as §1, §2

[15] = target: T13, NLK (Homo sapiens, UniProt Q9UBE8); assay: KinomeScan; assay type: binding; settings: read-out: % Ctrl @ 10000 nM
T13 construct: host or cells: E. coli host derived from BL21, infected with T7 phage
Experimental: as §1, §2

[16] = target: T14, ABL1(T315I) (Homo sapiens, UniProt P00519, T315I); assay: KinomeScan; assay type: binding; settings: read-out: % Ctrl @ 10000 nM
T14 construct: host or cells: E. coli (BL21-derived), T7 phage lysate
Experimental: as §1, §2

[17] = target: T15, ULK2 (Homo sapiens, UniProt Q8IYT8); assay: KinomeScan; assay type: binding; settings: read-out: % Ctrl @ 10000 nM
T15 construct: host or cells: E. coli host derived from BL21, T7 phage
Experimental: as §1, §2

[18] = target: T16, NEK2 (Homo sapiens, UniProt P51955); assay: KinomeScan; assay type: binding; settings: read-out: % Ctrl @ 10000 nM
T16 construct: host or cells: T7 phage grown in E. coli host derived from BL21
Experimental: as §1, §2

[19] = target: T17, ABL1 (Homo sapiens, UniProt P00519); assay: KinomeScan; assay type: binding; settings: read-out: % Ctrl @ 10000 nM
T17 construct: host or cells: E. coli (BL21-derived), T7 phage lysate
Experimental: as §1, §2

[20] = target: T18, DLK (Homo sapiens, UniProt Q12852); assay: KinomeScan; assay type: binding; settings: read-out: % Ctrl @ 10000 nM
T18 construct: purchased Ambit Biosciences Corp (KinomeScan); host or cells: T7 phage in E. coli host derived from BL21
Experimental: as §1, §2

[21] = target: T19, ABL1(Y253F) (Homo sapiens, UniProt P00519, Y253F); assay: KinomeScan; assay type: binding; settings: read-out: % Ctrl @ 10000 nM
T19 construct: host or cells: E. coli (BL21-derived), T7 phage lysate
Experimental: as §1, §2

[22] = target: T20, EPHB2 (Homo sapiens, UniProt P29323); assay: KinomeScan; assay type: binding; settings: read-out: % Ctrl @ 10000 nM
T20 construct: purchased Ambit Biosciences Corp; host or cells: T7 phage in E. coli host derived from BL21
Experimental: as §1, §2

[23] = target: T21, TRKC (Homo sapiens, UniProt Q16288); assay: KinomeScan; assay type: binding; settings: read-out: % Ctrl @ 10000 nM
T21 construct: host or cells: E. coli host derived from BL21, T7 phage
Experimental: as §1, §2

[24] = target: T22, LOK (Homo sapiens, UniProt O94804); assay: KinomeScan; assay type: binding; settings: read-out: % Ctrl @ 10000 nM
T22 construct: host or cells: E. coli host derived from the BL21 strain, infected with T7 phage
Experimental: as §1, §2

[25] = target: T23, SRMS (Homo sapiens, UniProt Q9H3Y6); assay: KinomeScan; assay type: binding; settings: read-out: % Ctrl @ 10000 nM
T23 construct: host or cells: T7 phage grown in E. coli (BL21-derived)
Experimental: as §1, §2

[26] = target: T24, PAK1 (Homo sapiens, UniProt Q13153); assay: KinomeScan; assay type: binding; settings: read-out: % Ctrl @ 10000 nM
T24 construct: host or cells: E. coli host derived from BL21, infected with T7 phage
Experimental: as §1, §2

[27] = target: T25, SIK2 (Homo sapiens, UniProt Q9H0K1); assay: KinomeScan; assay type: binding; settings: read-out: % Ctrl @ 10000 nM
T25 construct: host or cells: T7 phage grown in E. coli (BL21-derived)
Experimental: as §1, §2

[28] = target: T26, LATS1 (Homo sapiens, UniProt O95835); assay: KinomeScan; assay type: binding; settings: read-out: % Ctrl @ 10000 nM
T26 construct: host or cells: T7 phage grown in E. coli host derived from BL21
Experimental: as §1, §2

[29] = target: T27, BRAF(V600E) (Homo sapiens, UniProt P15056, V600E); assay: KinomeScan; assay type: binding; settings: read-out: % Ctrl @ 10000 nM
T27 construct: host or cells: E. coli host derived from BL21
Experimental: as §1, §2

[30] = target: T28, p38-delta (Homo sapiens, UniProt O15264); assay: KinomeScan; assay type: binding; settings: read-out: % Ctrl @ 10000 nM
T28 construct: host or cells: E. coli host derived from BL21, infected with T7 phage
Experimental: as §1, §2

[31] = target: T29, PIM2 (Homo sapiens, UniProt Q9P1W9); assay: KinomeScan; assay type: binding; settings: read-out: % Ctrl @ 10000 nM
T29 construct: host or cells: T7 phage in E. coli host derived from BL21
Experimental: as §1, §2

[32] = target: T30, TNK2 (Homo sapiens, UniProt Q07912); assay: KinomeScan; assay type: binding; settings: read-out: % Ctrl @ 10000 nM
T30 construct: host or cells: E. coli host derived from BL21, T7 phage
Experimental: as §1, §2

[33] = target: T31, PRKR (Homo sapiens, UniProt P19525); assay: KinomeScan; assay type: binding; settings: read-out: % Ctrl @ 10000 nM
T31 construct: host or cells: T7 phage in E. coli host derived from BL21
Experimental: as §1, §2

[34] = target: T32, FGFR2 (Homo sapiens, UniProt P21802); assay: KinomeScan; assay type: binding; settings: read-out: % Ctrl @ 10000 nM
T32 construct: host or cells: T7 phage in E. coli host derived from BL21
Experimental: as §1, §2

T26 sequence (O95835 whole entry): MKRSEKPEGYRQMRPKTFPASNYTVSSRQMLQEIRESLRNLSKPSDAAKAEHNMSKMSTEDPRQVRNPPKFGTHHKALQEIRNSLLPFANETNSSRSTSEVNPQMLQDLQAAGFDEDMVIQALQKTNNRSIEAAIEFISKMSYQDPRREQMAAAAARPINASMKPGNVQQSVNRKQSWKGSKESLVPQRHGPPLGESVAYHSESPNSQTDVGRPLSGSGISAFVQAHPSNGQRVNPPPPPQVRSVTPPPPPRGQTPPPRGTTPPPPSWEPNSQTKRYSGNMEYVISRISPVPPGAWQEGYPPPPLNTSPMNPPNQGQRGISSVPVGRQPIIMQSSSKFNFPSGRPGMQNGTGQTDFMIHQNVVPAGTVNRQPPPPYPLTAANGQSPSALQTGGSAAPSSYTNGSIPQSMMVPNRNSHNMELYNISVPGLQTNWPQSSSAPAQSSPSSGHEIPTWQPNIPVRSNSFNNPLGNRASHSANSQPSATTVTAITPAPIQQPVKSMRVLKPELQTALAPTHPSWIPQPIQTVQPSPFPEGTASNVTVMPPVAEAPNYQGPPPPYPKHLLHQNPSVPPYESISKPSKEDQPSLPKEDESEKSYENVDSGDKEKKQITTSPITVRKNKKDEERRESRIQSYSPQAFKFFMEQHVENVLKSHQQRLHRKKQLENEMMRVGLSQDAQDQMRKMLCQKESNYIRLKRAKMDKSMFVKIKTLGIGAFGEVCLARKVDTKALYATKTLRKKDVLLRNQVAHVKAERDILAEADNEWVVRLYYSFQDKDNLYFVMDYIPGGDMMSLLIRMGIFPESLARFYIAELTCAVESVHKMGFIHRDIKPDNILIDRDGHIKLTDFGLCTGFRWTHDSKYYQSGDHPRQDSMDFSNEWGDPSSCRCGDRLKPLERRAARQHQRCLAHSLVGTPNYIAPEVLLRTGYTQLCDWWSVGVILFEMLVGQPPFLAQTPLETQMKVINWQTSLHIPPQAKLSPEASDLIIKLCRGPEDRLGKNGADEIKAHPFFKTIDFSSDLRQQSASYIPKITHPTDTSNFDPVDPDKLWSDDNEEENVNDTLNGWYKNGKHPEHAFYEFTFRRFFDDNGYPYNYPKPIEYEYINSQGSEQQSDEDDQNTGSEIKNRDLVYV
T22 sequence (O94804 whole entry): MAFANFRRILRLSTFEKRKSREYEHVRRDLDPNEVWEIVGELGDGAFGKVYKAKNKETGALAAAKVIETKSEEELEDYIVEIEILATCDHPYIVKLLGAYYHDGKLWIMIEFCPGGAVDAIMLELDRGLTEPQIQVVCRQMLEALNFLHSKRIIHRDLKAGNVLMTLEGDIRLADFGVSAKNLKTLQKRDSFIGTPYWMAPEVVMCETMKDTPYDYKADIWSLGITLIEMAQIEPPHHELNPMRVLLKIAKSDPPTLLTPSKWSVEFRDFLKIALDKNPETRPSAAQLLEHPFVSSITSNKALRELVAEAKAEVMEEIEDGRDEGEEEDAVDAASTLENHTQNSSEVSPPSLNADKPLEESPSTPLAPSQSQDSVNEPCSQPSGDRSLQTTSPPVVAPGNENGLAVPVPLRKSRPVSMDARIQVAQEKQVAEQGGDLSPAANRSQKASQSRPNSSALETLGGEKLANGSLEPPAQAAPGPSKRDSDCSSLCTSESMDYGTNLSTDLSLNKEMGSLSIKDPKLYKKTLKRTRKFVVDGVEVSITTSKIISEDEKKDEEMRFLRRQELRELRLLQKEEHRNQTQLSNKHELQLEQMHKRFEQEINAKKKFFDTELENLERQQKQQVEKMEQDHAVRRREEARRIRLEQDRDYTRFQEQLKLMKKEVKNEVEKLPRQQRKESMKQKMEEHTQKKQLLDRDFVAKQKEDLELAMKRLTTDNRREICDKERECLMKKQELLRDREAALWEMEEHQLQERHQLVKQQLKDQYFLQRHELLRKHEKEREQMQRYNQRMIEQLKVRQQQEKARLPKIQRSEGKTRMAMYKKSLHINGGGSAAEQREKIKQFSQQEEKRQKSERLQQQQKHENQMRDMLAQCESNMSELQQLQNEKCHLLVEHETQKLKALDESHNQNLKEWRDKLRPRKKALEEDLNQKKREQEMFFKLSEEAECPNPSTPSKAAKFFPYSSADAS
T4 sequence (P27037 20-513): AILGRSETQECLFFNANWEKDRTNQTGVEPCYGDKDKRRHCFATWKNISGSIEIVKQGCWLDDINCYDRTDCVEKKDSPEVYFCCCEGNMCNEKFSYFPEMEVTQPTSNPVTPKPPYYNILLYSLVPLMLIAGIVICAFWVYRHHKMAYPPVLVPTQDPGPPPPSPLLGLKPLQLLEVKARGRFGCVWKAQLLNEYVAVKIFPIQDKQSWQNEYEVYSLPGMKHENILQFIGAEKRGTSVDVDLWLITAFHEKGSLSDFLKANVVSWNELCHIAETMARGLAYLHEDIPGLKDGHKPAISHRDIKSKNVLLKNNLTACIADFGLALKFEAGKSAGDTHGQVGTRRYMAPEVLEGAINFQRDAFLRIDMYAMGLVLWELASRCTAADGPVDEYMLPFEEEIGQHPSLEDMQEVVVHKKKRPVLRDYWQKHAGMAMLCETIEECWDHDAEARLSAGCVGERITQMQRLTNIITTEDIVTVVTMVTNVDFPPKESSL
T18 sequence (Q12852 whole entry): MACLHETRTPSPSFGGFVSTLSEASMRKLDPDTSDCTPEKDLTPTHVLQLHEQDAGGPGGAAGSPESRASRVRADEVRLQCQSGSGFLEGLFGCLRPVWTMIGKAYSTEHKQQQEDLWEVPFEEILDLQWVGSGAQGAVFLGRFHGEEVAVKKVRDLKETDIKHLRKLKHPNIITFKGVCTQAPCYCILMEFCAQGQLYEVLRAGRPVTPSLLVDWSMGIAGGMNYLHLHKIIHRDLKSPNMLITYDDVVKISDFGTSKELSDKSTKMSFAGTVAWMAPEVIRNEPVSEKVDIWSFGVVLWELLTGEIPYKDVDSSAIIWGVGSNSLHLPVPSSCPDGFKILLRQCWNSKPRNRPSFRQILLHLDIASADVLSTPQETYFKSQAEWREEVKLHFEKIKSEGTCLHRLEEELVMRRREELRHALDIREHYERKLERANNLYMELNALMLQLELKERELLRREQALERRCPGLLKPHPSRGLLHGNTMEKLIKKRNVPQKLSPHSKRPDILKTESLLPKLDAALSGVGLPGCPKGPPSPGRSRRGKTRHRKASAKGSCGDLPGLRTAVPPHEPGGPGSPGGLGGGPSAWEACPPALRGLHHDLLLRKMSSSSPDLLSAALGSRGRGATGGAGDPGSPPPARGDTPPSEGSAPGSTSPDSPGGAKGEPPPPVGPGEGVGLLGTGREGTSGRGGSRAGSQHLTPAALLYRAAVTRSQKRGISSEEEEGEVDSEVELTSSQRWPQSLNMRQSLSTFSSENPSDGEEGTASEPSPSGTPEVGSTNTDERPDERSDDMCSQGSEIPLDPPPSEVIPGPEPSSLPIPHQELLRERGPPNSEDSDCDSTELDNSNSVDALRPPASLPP
T13 sequence (Q9UBE8 whole entry): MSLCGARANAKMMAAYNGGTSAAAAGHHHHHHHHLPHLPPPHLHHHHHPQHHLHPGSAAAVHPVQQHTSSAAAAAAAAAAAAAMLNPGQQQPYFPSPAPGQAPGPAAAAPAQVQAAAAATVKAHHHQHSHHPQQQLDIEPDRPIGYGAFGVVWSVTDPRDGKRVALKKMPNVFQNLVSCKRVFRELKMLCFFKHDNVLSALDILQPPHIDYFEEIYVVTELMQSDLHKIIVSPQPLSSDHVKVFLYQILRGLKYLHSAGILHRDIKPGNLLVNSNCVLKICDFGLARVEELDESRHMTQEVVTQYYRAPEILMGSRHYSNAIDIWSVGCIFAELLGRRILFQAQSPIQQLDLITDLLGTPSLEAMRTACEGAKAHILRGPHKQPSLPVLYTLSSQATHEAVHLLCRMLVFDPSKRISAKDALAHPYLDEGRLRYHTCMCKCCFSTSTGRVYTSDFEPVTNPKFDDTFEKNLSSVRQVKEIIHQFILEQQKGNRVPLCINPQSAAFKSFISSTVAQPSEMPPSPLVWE
T8 sequence (P49759 whole entry): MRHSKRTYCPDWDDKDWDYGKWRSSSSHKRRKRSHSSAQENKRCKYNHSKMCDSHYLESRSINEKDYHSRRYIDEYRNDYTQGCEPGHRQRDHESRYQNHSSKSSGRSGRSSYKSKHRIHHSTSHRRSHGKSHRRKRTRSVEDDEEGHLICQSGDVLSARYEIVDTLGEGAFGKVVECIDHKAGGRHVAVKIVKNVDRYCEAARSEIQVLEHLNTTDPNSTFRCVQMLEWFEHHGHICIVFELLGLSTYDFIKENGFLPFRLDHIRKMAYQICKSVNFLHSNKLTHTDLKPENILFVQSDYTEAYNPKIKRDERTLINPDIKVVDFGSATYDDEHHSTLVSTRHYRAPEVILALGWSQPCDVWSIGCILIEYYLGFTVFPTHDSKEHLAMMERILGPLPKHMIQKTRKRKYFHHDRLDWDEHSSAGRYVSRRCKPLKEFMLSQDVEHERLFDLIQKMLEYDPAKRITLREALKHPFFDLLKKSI
T24 sequence (Q13153 whole entry): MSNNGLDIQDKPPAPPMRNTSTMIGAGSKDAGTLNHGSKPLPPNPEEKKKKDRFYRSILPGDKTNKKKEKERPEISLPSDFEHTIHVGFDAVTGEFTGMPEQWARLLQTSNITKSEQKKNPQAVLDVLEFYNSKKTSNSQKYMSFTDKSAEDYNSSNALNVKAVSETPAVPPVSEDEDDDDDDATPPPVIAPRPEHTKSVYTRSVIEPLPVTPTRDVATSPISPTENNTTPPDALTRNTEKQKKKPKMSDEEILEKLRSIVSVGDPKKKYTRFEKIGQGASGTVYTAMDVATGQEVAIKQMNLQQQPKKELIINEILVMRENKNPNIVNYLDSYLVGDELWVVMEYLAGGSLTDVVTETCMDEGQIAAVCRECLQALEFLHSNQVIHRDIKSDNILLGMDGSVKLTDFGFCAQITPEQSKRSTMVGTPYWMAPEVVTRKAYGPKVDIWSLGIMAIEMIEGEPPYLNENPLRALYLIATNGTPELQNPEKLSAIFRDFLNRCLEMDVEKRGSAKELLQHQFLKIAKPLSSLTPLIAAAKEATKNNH

## C#Cc1cccc(Nc2ncnc3cc(OC)c(OCCCN4CCOCC4)cc23)c1 [NRC-2694, N-(3-ethynylphenyl)-7-methoxy-6-[3-(4-morpholinyl)propoxy]-4-quinazolinamine]
[1]
  ED50: 6.3 mg/kg
[2]
  inhibition of hERG current: ~42%
[3]
  remaining binding at 10 µM: 92%
[4]
  remaining binding at 10 µM: 94%
[5]
  remaining binding at 10 µM: 7.2%
[6]
  remaining binding at 10 µM: 92%
[7]
  remaining binding at 10 µM: 100%
[8]
  remaining binding at 10 µM: 66%
[9]
  remaining binding at 10 µM: 100%
[10]
  remaining binding at 10 µM: 31%
[11]
  remaining binding at 10 µM: 71%
[12]
  remaining binding at 10 µM: 52%
[13]
  remaining binding at 10 µM: 50%
[14]
  remaining binding at 10 µM: 82%
[15]
  remaining binding at 10 µM: 55%
[16]
  remaining binding at 10 µM: 35%
[17]
  remaining binding at 10 µM: 39%
[18]
  remaining binding at 10 µM: 63%
[19]
  remaining binding at 10 µM: 67%
[20]
  remaining binding at 10 µM: 92%
[21]
  remaining binding at 10 µM: 23%
[22]
  remaining binding at 10 µM: 83%
[23]
  remaining binding at 10 µM: 80%
[24]
  remaining binding at 10 µM: 0%
[25]
  remaining binding at 10 µM: 100%
[26]
  remaining binding at 10 µM: 74%
[27]
  remaining binding at 10 µM: 21%
[28]
  remaining binding at 10 µM: 91%
[29]
  remaining binding at 10 µM: 73%
[30]
  remaining binding at 10 µM: 100%
[31]
  remaining binding at 10 µM: 83%
[32]
  remaining binding at 10 µM: 37%
[33]
  remaining binding at 10 µM: 51%
[34]
  remaining binding at 10 µM: 100%

From patent US8921362B2, “6,7-dialkoxy quinazoline derivatives and methods of treating drug resistant and other tumors” (Natco Pharma Limited, priority 2008, dated 2014)
